Entries after “also recorded” stand apart in the source; their conditions may differ.
What was measured:
rTRPV1 = rTRPV1 (Rattus norvegicus, UniProt O35433); type: cell-based
cTRPV1-A578E = cTRPV1-A578E (Gallus gallus, UniProt Q8QFN9, A578E); experiment: cell-based; set-up: species or system chicken (Gallus gallus)
3XHA-cTRPV1-A578K = type: cell-based, chicken (Gallus gallus)
3XHA-cTRPV1-A578P = type: cell-based, chicken (Gallus gallus)
3XHA-cTRPV1-A578Q = type: cell-based, chicken (Gallus gallus)
cTRPV1 = cTRPV1 (Gallus gallus, UniProt Q8QFN9); experiment: cell-based; type: cell-based, chicken (Gallus gallus)
Sequence of cTRPV1 (Q8QFN9 1-843): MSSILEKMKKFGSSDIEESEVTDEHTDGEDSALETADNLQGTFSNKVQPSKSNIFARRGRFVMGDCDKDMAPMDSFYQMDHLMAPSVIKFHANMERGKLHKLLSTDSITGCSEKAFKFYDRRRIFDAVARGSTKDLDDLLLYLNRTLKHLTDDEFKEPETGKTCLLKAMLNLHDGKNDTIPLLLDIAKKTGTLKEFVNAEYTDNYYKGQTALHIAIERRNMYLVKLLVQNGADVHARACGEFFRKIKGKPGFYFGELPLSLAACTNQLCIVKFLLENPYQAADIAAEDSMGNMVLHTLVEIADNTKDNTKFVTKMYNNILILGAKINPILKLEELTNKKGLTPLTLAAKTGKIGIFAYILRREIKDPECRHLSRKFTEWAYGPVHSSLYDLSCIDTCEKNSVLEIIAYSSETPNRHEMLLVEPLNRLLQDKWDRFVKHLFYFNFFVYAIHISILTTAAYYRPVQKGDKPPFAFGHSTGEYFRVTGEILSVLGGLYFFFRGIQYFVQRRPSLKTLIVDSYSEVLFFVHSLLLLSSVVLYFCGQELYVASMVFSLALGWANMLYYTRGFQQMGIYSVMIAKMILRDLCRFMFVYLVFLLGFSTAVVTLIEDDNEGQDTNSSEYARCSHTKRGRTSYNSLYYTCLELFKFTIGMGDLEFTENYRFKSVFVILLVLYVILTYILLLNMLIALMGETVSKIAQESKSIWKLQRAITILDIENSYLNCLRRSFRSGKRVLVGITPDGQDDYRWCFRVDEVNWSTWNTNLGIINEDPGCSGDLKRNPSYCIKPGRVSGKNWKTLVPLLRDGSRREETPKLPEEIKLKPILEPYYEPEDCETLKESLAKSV

[1] = tested on: Ch15 rat-chicken TRPV1 chimera (rat C-terminus, N687-K838); type: cell-based
[2] = tested on: Ch6 rat-chicken TRPV1 chimera (rat N-terminus, M1-R428); type: cell-based
rTRPV1-E570K = biological target: T1, rTRPV1-E570K (Rattus norvegicus, UniProt O35433, E570K); type: cell-based
T1 construct: expressed in transfected cells; host or cells: HEK293T
T1 sequence (O35433 whole entry E570K): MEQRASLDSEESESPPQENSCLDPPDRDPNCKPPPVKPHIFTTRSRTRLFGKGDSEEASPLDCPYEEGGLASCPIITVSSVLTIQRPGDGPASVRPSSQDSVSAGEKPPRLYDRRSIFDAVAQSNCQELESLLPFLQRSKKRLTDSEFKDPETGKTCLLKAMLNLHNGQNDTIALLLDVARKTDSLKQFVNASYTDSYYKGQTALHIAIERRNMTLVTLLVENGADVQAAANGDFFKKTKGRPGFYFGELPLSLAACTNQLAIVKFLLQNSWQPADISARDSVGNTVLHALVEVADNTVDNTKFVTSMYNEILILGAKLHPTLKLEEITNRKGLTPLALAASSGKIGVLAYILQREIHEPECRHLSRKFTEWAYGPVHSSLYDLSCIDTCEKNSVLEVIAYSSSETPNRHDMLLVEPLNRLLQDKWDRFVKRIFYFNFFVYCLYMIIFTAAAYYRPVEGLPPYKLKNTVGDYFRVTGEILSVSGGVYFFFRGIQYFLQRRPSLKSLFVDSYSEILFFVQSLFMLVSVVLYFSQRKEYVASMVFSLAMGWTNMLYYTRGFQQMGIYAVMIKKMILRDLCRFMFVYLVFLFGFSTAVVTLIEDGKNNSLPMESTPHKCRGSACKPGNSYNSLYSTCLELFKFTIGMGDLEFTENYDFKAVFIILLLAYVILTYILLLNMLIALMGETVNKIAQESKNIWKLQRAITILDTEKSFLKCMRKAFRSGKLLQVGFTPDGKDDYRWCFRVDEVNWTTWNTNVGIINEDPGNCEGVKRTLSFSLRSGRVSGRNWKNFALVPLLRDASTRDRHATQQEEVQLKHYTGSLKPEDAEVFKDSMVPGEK

rTRPV1-E570Q = biological target: T2, rTRPV1-E570Q (Rattus norvegicus, UniProt O35433, E570Q); type: cell-based
T2 construct: expressed in transfected cells; host or cells: HEK293T
T2 sequence (O35433 whole entry E570Q): as the sequence (O35433 whole entry E570K) above, with K570Q counted along it

rTRPV1-E570P = biological target: T3, rTRPV1-E570P (Rattus norvegicus, UniProt O35433, E570P); type: cell-based
T3 construct: expressed in transfected cells; host or cells: HEK293T
T3 sequence (O35433 whole entry E570P): as the sequence (O35433 whole entry E570K) above, with K570P counted along it

rTRPV1-E570A = biological target: T4, rTRPV1-E570A (Rattus norvegicus, UniProt O35433, E570A); type: cell-based
T4 construct: expressed in transfected cells; host or cells: HEK293T
T4 sequence (O35433 whole entry E570A): as the sequence (O35433 whole entry E570K) above, with K570A counted along it

Sequence of cTRPV1-A578E (Q8QFN9 1-843 A578E): as the sequence (Q8QFN9 1-843) above, with A578E counted along it
Sequence of rTRPV1 (O35433 whole entry): as the sequence (O35433 whole entry E570K) above, with K570E counted along it

COc1cc(CCC(C)=O)ccc1O [zingerone]
Zingerone-induced activity relative to capsaicin (rTRPV1): 35.9 ± 5.0%
zingerone-induced activation (rTRPV1): activated rTRPV1
zingerone-induced activation (cTRPV1-A578E): did not activate
zingerone-induced activation (3XHA-cTRPV1-A578K): did not activate
zingerone-induced activation (3XHA-cTRPV1-A578P): did not activate
zingerone-induced activation (3XHA-cTRPV1-A578Q): did not activate

CNCCOc1ccc(CNC(=O)CCCC/C=C/C(C)C)cc1OC [Cap-EMA, O-(N-methylaminoethyl) capsaicin]
capsaicin analog-induced activation (rTRPV1): strong response
capsaicin analog-induced activation (3XHA-cTRPV1-A578K): slightly activated

COc1cc(CNC(=O)CCCC/C=C/C(C)C)ccc1OCCN [Cap-EA, O-aminoethyl capsaicin]
capsaicin analog-induced activation (rTRPV1): strong response
capsaicin analog-induced activation (cTRPV1-A578E): successfully activated; also recorded: strongly activated
capsaicin analog-induced activation (3XHA-cTRPV1-A578K): partially activated

COc1cc(CNC(=O)CCCC/C=C/C(C)C)ccc1O [capsaicin]
channel activation (Ca2+ signal) (rTRPV1): activated rTRPV1
EC50 (cTRPV1): > 30 µM
channel activation (Ca2+ signal) (cTRPV1): the response was relatively weak for cTRPV1; also recorded: limited response
capsaicin sensitivity of chimera [1]: no capsaicin sensitivity
capsaicin sensitivity of chimera vs cTRPV1 [2]: limited improvement in capsaicin sensitivity
EC50 (cTRPV1-A578E): 7.2 ± 9.4 µM
increase of response to 100 μM capsaicin, A578E mutant vs wildtype cTRPV1 (cTRPV1-A578E): 5 fold
vanilloid responsiveness (30 μM capsaicin-induced activation normalized to cocktail-induced maximum channel opening) (cTRPV1-A578E): greatest capsaicin sensitivity
vanilloid responsiveness (30 μM capsaicin-induced activation normalized to cocktail-induced maximum channel opening) (3XHA-cTRPV1-A578K): greatest capsaicin sensitivity
vanilloid responsiveness (30 μM capsaicin-induced activation normalized to cocktail-induced maximum channel opening) (3XHA-cTRPV1-A578P): greatest capsaicin sensitivity
vanilloid responsiveness (30 μM capsaicin-induced activation normalized to cocktail-induced maximum channel opening) (3XHA-cTRPV1-A578Q): greatest capsaicin sensitivity
responsiveness to 300 nM capsaicin normalized to protein expression level (rTRPV1-E570K): exhibited responsiveness to 300 nM capsaicin, albeit much weaker than wildtype
responsiveness to 300 nM capsaicin normalized to protein expression level (rTRPV1-E570Q): exhibited responsiveness to 300 nM capsaicin, albeit much weaker than wildtype
responsiveness to 300 nM capsaicin normalized to protein expression level (rTRPV1-E570P): reduced capsaicin sensitivity
capsaicin-induced responses vs wildtype rTRPV1 (rTRPV1-E570A): drastically decreased

ruthenium red
block of cocktail-elicited extracellular Ca2+ entry (rTRPV1): could be blocked
block of cocktail-elicited ion flow (cTRPV1): sufficient to block most ions

Reference: paper PMC7229161 (Scientific Reports, 2020)
